# How the values were obtained:
# TNBS colitis mouse model = assay type: in vivo, mice; conditions: dexamethasone i.p. daily
# Procedure: TNBS colitis model and treatment with CCL2—TNBS colitis was induced as previously described [Ohkawara et al. (2002) Gastroenterology, 123:256]. Briefly, mice were anesthetized by i.p. injection (35 μl per mouse) of a mixture containing 85% ketamine and 15% xylazine (20 mg/ml). Next, 100 μl of TNBS [55% volume of 50% ethanol mixed with 45% volume of TNBS solution ([…]; Sigma-Aldrich)] was infused into the colonic lumen (about 3.5 cm of the anal verge) via 1 ml syringe attached to a feeding needle. Treated mice were weighted daily and visually inspected for clinical symptoms, such as rectal bleeding and diarrhea.
# TNBS mice were divided into 6 groups. CCL2 groups (10 mice in each group) were injected i.p. daily with different CCL2 concentrations (30 ng, 60 ng or 180 ng) in 200 μl of PBS from day 0 (immediately after TNBS induction) to day 6. Control groups (10 mice in each group) were injected i.p. daily with 200 μl PBS alone. Additionally, 5 mice were injected i.p. daily with dexamethasone; and 1 mouse which was not treated and served as negative control for future histology and weight.
# Macroscopic and histological assessment of colitis—An observer blind to the experimental procedure scored colitis for clinical manifestation of disease. The colon was macroscopically examined (×5 magnification) to evaluate the macroscopic lesions according to the Wallace criteria. The Wallace score ranks macroscopic colon lesions on a scale from 0 to 16 based on criteria reflecting inflammation, such as hyperemia, thickening of the bowel and the extent of ulceration. The colon was cut lengthwise and fixed in 4% paraformaldehyde for future histology.
# naïve T cells = assay: Cytoskeleton rearrangement (actin polymerization), naïve T cells; assay type: cell-based, mice; conditions: CCL21 stimulation in presence of chemokine 0.1 ng/ml; FIG. 2e
# Procedure: Cytoskeleton rearrangement—T cells were pre-incubated for 30 minutes in the presence or absence of CCL2 (0.1 ng/ml), and then stimulated with either CXCL12 (0.1 mg/ml PeproTech, Inc., Rocky Hill N.J.), SLC (CCL21, 0.4 mg/ml, PeproTech, Inc., Rocky Hill, N.J.), Rantes (0.1 mg/ml, R&D systems Minneapolis, Minn.), MIP-1β(0.1 mg/ml, R&D systems Minneapolis, Minn.) or Eotoxin (0.1 mg/ml R&D systems Minneapolis, Minn.) for 15 seconds. Cells were then immediately fixed with paraformaldehyde, permeabilized and their intracellular F-actin was stained with FITC-phalloidin (Sigma-Aldrich, St. Louis, Mo.), and then analyzed by flow cytometry to determine the state of their cytoskeleton, as previously described [Flaishon, L. F., et al., J. Biol. Chem. 276:46701 (2001)].
# [1] = tested on: human T cells interacting with ICAM-1 (LFA-1); assay: Laminar flow adhesion assay on ICAM-1 with co-immobilized CCL21; assay type: cell-based; conditions: low dose chemokine pretreatment
# Procedure: (§1) Laminar flow adhesion assays—Purified VCAM-1 or ICAM-1-Fc (both from R&D Systems, Minneapolis, Minn.) were coated with or without CCL21 (R&D Systems) on polystyrene plates as previously described [Grabovsky et al., J Exp Med. (2000) 192:495-506; Sigal et al., J Immunol. (2000) 165:442-452]. The polystyrene plates were each assembled on the lower wall of the flow chamber as previously described [Feigelson et al., J Biol Chem. (2001) 276:13891-13901]. All flow experiments were conducted at 37° C. Cells were washed with cation-free H/H medium, resuspended in binding medium (H/H medium supplemented with 1 mM CaCl2 and 1 mM MgCl2) and perfused through the flow chamber at low shear stress (0.5-0.75 dyn/cm^2) for 2 minutes. Tethers were defined as transient or rolling if cells attached briefly (<2 seconds) to the substrate and as arrests if immediately arrested and remaining stationary for at least 5 seconds of continuous flow. Frequencies of adhesive categories within differently pretreated cells were determined as a percentage of cells flowing immediately over the substrates, as previously described [Grabovsky et al., supra]. To assess resistance to detachment over time, accumulated cells were subjected to a shear stress of 5 dyn/cm^2 for 5 minutes. At the indicated time points, the number of cells that remained bound was expressed relative to T cell population originally accumulated in the first 2 minute period of the assay. Over 90% of cellular tethers to VCAM-1 or ICAM-1 were blocked by pretreating cells with VLA-4 or LFA-1 blockers respectively.
# [2] = tested on: human T cells interacting with VCAM-1 (VLA-4); assay: Laminar flow adhesion assay on VCAM-1 with co-immobilized CCL21; assay type: cell-based; conditions: low dose chemokine pretreatment
# Procedure: as §1
molecule,measurement,setting,value
"C[C@@H]1C[C@H]2[C@@H]3CCC4=CC(=O)C=C[C@]4(C)[C@@]3(F)[C@@H](O)C[C@]2(C)[C@@]1(O)C(=O)CO [dexamethasone, reference compound]",Colon length (cm),TNBS colitis mouse model,8.17 ± 0.76 cm
same,Diarrhea (# of mice),TNBS colitis mouse model; 3 mice,0 # of mice
same,Colitis score,"TNBS colitis mouse model; Wallace score 0 to 16, mean±SEM",0.67 ± 0.58
"CXCL12: chemokine, chemoattractant for T cells; tested at low dose as comparator [reference compound]",inhibitory effect of low levels of chemokine on actin polymerization of naïve T cells,naïve T cells,no inhibitory effect
same,post arrest adhesion strengthening on ICAM-1 (resistance to detachment),"[1]; high shear stress 5 dyn/cm^2, FIG. 6b",retained
same,LFA-1 activation by surface bound CCL21 (arrest on ICAM-1),"[1]; shear stress 0.5 dyn/cm^2, FIG. 6a",retained
same,post arrest adhesion strengthening on VCAM-1 (resistance to detachment),"[2]; high shear stress 5 dyn/cm^2, FIG. 6d",retained
same,VLA-4 activation by surface bound CCL21 (arrest on VCAM-1),"[2]; shear stress 0.75 dyn/cm^2, FIG. 6c",retained
Eotoxin: comparator chemokine (R&D systems) [reference compound],inhibitory effect of low levels of chemokine on actin polymerization of naïve T cells,naïve T cells,no inhibitory effect
"Rantes: comparator chemokine (R&D systems) (protein, UniProt P13501 24-91, looked up) C-C motif chemokine 5: SPYSSDTTPCCFAYIARPLPRAHIKEYFYTSGKCSNPAVVFVTRKNRQVCANPEKKWVREYINSLEMS",inhibitory effect of low levels of chemokine on actin polymerization of naïve T cells,naïve T cells,no inhibitory effect
"Mip1β: comparator chemokine (R&D systems) (protein, UniProt P13236 24-92, looked up) C-C motif chemokine 4: APMGSDPPTACCFSYTARKLPRNFVVDYYETSSLCSQPAVVFQTKRSKQVCADPSESWVQEYVYDLELN",inhibitory effect of low levels of chemokine on actin polymerization of naïve T cells,naïve T cells,no inhibitory effect
